Source: US12247033B2, “Triazole-substituted imidazo[1,2-a]pyrimidines as cGAS inhibitors” (GlaxoSmithKline Intellectual Property Development Limited, priority 2022, dated 2025)
Structures can show the parent of a compound that is named as a salt.

Each molecule was assayed against human CGAS (157-522) (Homo sapiens, UniProt Q8N884) (assay: biochemical). Conditions: not given.
Chain of human CGAS (157-522) (Q8N884 157-522): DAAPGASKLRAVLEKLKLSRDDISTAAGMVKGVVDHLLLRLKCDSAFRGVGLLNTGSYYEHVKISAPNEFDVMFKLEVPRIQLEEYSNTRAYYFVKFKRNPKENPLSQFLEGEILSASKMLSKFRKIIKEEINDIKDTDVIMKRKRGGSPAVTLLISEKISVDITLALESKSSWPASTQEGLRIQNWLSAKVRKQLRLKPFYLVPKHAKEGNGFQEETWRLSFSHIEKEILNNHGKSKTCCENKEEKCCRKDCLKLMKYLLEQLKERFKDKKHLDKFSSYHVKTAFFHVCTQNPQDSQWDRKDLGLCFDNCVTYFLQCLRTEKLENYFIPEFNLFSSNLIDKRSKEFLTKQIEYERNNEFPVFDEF

Row | IC50 | Compound
1 | 0.00501 µM | [O-][S+]1CCc2nc3nc(-c4nc(C(F)(F)F)n[nH]4)c(-c4cnc[nH]4)n3cc2C1 (centres unmarked) [Example 116, 6-(1H-imidazol-5-yl)-5-[3-(trifluoromethyl)-1H-1,2,4-triazol-5-yl]-11λ^4-thia-2,4,7-triazatricyclo[7.4.0.0^3,^7]trideca-1,3,5,8-tetraen-11-one]
2 | 0.158 µM | FC(F)(F)c1n[nH]c(-c2nc3ncc(COc4cccnc4)cn3c2-c2cnc[nH]2)n1 [Example 119, 3-{[3-(1H-imidazol-5-yl)-2-[3-(trifluoromethyl)-1H-1,2,4-triazol-5-yl]imidazo[1,2-a]pyrimidin-6-yl]methoxy}pyridine]
3 | 0.00501 µM | FC(F)(F)c1n[nH]c(-c2nc3ncc(CCN4CCOCC4)cn3c2-c2cnc[nH]2)n1 [Example 122, 4-{2-[3-(1H-imidazol-5-yl)-2-[3-(trifluoromethyl)-1H-1,2,4-triazol-5-yl]imidazo[1,2-a]pyrimidin-6-yl]ethyl}morpholine]
4 | 15.8 µM | Cn1cc(-c2c(-c3nc(C(F)(F)F)n[nH]3)nc3ncccn23)cn1 [Example 131, 5-[3-(1-methyl-1H-pyrazol-4-yl)imidazo[1,2-a]pyrimidin-2-yl]-3-(trifluoromethyl)-1H-1,2,4-triazole]
5 | 0.0398 µM | CN1CCC(Oc2ccn3c(-c4c[nH]cn4)c(-c4nc(C(F)(F)F)n[nH]4)nc3n2)CC1 [Example 132, 4-{[3-(1H-imidazol-4-yl)-2-[3-(trifluoromethyl)-1H-1,2,4-triazol-5-yl]imidazo[1,2-a]pyrimidin-7-yl]oxy}-1-methylpiperidine]
6 | 0.00794 µM | Cc1cn(C)c(COCc2cnc3nc(-c4nc(C(F)(F)F)n[nH]4)c(-c4c[nH]cn4)n3c2)n1 [Example 158, 5-(6-{[(1,4-dimethyl-1H-imidazol-2-yl)methoxy]methyl}-3-(1H-imidazol-4-yl)imidazo[1,2-a]pyrimidin-2-yl)-3-(trifluoromethyl)-1H-1,2,4-triazole]

What follows are molecules tested on CGAS (assay: CGAS whole blood cytokine release assay (384-well, BacMam stimulation, IP-10 by cytometric bead array)). Conditions: Homo sapiens, 6 h; read-out: hWB pXC50 (converted).
Type: cell-based
Description: Blood collection: Blood was collected in a tube containing 10% Sodium Heparin (5 ml/45 ml blood final).
Protocol for CGAS Whole Blood Cytokine Release Assay: Compounds serial diluted at 1:3 were provided at 150 nL per well, in a 384 well polypropylene microplate (cat. 781280; Greiner Bio-One, Frickenhausen, Germany). 5 μL of PBS/20% Null BacMam was dispensed to all wells except for column 18 on a Multidrop Combi (Thermo Scientific, Waltham, MA). 5 uL of PBS was dispensed into column 18. The Bravo (Agilent, Santa Clara, CA) was used to transfer 45 uL of donor derived blood into the compound plates. The Bravo protocol mixed the blood and compound/PBS 5 times. The plates were incubated at 37° C., 5% CO2, for 6 hours. At the 6 hour mark the plates were removed and centrifuged for 10 minutes at 3000 RPM. 3 uL of supernatant was transferred from the plate to a 384 well NBS microplate (cat. 4513; Corning Life Sciences, Corning, NY). These plates were sealed with adhesive foil and stored in a −80 freezer until ready for analysis.
For cytokine detection, Human IP-10 BD cytometric bead array (CBA) beads (BD Biosciences, Franklin Lakes, NJ) were used. Capture bead solution was prepared by performing a 1:50 dilution of the IP-10 capture bead stock solution in BD diluent for serum/plasma (cat. 51-9003991 BD Biosciences, Franklin Lakes, NJ). 2 μL of this solution was added per well to the assay microplates which were then sealed with adhesive foil and incubated at room temperature for 2 h in the dark. Detection reagent was further prepared by performing a 1:50 dilution of the detection reagent stock solution. 2 μL of detection reagent was added per well and microplates were sealed with adhesive foil and incubated at room temperature in the dark for 1 h. After the 1 h incubation 3 uL of BD CBA wash buffer was added per well of the microplates. Data were acquired on an iQue Screener flow cytometer. The iQue used fluorescence detection to quantify the inhibition of IP-10 present in the sample wells. A sip time of 1 second per sample was used. The blue laser with excitation of 488 nm and emission filters 585/40 nm were used to capture the mean and median of IP-10 with the detector in logarithmic mode (FL2-H).
All data analysis was carried out in IDBS ActivityBase XE.

Row | IC50 | Compound
7 | 2.51 µM | FC(F)(F)c1ccn2c(-c3cn[nH]c3)c(-c3nc(C(F)(F)F)n[nH]3)nc2n1 [Example 93, 5-[3-(1H-pyrazol-4-yl)-7-(trifluoromethyl)imidazo[1,2-a]pyrimidin-2-yl]-3-(trifluoromethyl)-1H-1,2,4-triazole]
8 | 0.398 µM | COC(=O)c1ccn2c(-c3c[nH]cn3)c(-c3nc(C(F)(F)F)n[nH]3)nc2n1 [Example 100, methyl 3-(1H-imidazol-4-yl)-2-[3-(trifluoromethyl)-1H-1,2,4-triazol-5-yl]imidazo[1,2-a]pyrimidine-7-carboxylate]
9 | 0.126 µM | FC(F)COCc1cnc2nc(-c3nc(C(F)(F)F)n[nH]3)c(-c3cnc[nH]3)n2c1 [Example 101, 5-{6-[(2,2-difluoroethoxy)methyl]-3-(1H-imidazol-5-yl)imidazo[1,2-a]pyrimidin-2-yl}-3-(trifluoromethyl)-1H-1,2,4-triazole]
10 | 0.631 µM | CCN1Cc2cn3c(-c4cnc[nH]4)c(-c4nc(C(F)(F)F)n[nH]4)nc3nc2C(F)(F)C1 [Example 108, 11-ethyl-13,13-difluoro-6-(1H-imidazol-5-yl)-5-[3-(trifluoromethyl)-1H-1,2,4-triazol-5-yl]-2,4,7,11-tetraazatricyclo[7.4.0.0^3,^7]trideca-1,3,5,8-tetraene]
11 | 1 µM | FC(F)Oc1n[nH]c(-c2nc3ncccn3c2-c2cnc[nH]2)n1 [Example 113, 3-(difluoromethoxy)-5-[3-(1H-imidazol-5-yl)imidazo[1,2-a]pyrimidin-2-yl]-1H-1,2,4-triazole]
12 | 1.58 µM | CCOCc1cn2c(-c3cnc[nH]3)c(-c3nc(C(F)(F)F)n[nH]3)nc2nc1C(F)(F)F [Example 115, 5-[6-(ethoxymethyl)-3-(1H-imidazol-5-yl)-7-(trifluoromethyl)imidazo[1,2-a]pyrimidin-2-yl]-3-(trifluoromethyl)-1H-1,2,4-triazole]
13 | 0.631 µM | CC1(C)Cc2nc3nc(-c4nc(C(F)(F)F)n[nH]4)c(-c4c[nH]cn4)n3cc2CO1 [Example 137, 6-(1H-imidazol-4-yl)-12,12-dimethyl-5-[3-(trifluoromethyl)-1H-1,2,4-triazol-5-yl]-11-oxa-2,4,7-triazatricyclo[7.4.0.0^3,^7]trideca-1,3,5,8-tetraene]
14 | 0.794 µM | FC(F)(F)c1n[nH]c(-c2nc3ncc(C4(C(F)(F)F)CC4)cn3c2-c2cnc[nH]2)n1 [Example 144, 5-[3-(1H-imidazol-5-yl)-6-[1-(trifluoromethyl)cyclopropyl]imidazo[1,2-a]pyrimidin-2-yl]-3-(trifluoromethyl)-1H-1,2,4-triazole]

The remaining lines, values behind:

Row | Compound | IC50
15 | OCc1ccn2c(-c3cnc[nH]3)c(-c3nc(C(F)(F)F)n[nH]3)nc2n1 [Example 9, [3-(1H-imidazol-5-yl)-2-[3-(trifluoromethyl)-1H-1,2,4-triazol-5-yl]imidazo[1,2-a]pyrimidin-7-yl]methanol, 0.3 trifluoroacetic acid salt] | 0.1 µM
16 | FC(F)(F)COc1ccn2c(-c3cnc[nH]3)c(-c3nc(C(F)(F)F)n[nH]3)nc2n1 [Example 12, 5-[3-(1H-imidazol-5-yl)-7-(2,2,2-trifluoroethoxy)imidazo[1,2-a]pyrimidin-2-yl]-3-(trifluoromethyl)-1H-1,2,4-triazole] | 6.31 µM
17 | FC(F)(F)c1n[nH]c(-c2nc3ncc(CC4CCCC4)cn3c2-c2cnc[nH]2)n1 [Example 17, 5-[6-(cyclopentylmethyl)-3-(1H-imidazol-5-yl)imidazo[1,2-a]pyrimidin-2-yl]-3-(trifluoromethyl)-1H-1,2,4-triazole, trifluoroacetic acid salt] | 1.26 µM
18 | CNCCOC(=O)OCn1cnc(-c2c(-c3nc(C(F)(F)F)n[nH]3)nc3ncccn23)c1 [Example 26, 2-(methylamino)ethyl (4-{2-[3-(trifluoromethyl)-1H-1,2,4-triazol-5-yl]imidazo[1,2-a]pyrimidin-3-yl}-1H-imidazol-1-yl)methyl carbonate, 2 trifluoroacetic acid salt] | 0.0398 µM
19 | O=C(O)CCOC(=O)OCn1cnc(-c2c(-c3nc(C(F)(F)F)n[nH]3)nc3ncccn23)c1 [Example 32, 3-({[(4-{2-[3-(trifluoromethyl)-1H-1,2,4-triazol-5-yl]imidazo[1,2-a]pyrimidin-3-yl}-1H-imidazol-1-yl)methoxy]carbonyl}oxy)propanoic acid, 0.5 trifluoroacetic acid salt] | 3.16 µM
20 | CC(=O)n1cnc(-c2c(-c3nc(C(F)(F)F)n[nH]3)nc3ncccn23)c1 [Example 62, 1-(4-{2-[3-(trifluoromethyl)-1H-1,2,4-triazol-5-yl]imidazo[1,2-a]pyrimidin-3-yl}-1H-imidazol-1-yl)ethan-1-one] | 0.126 µM
21 | FC(F)(F)c1cnc2nc(-c3nc(C(F)(F)F)n[nH]3)c(-c3cnc[nH]3)n2c1 [Example 64, 5-[3-(1H-imidazol-5-yl)-6-(trifluoromethyl)imidazo[1,2-a]pyrimidin-2-yl]-3-(trifluoromethyl)-1H-1,2,4-triazole] | 0.398 µM
22 | FC(F)(F)c1n[nH]c(-c2nc3ncc(COC4CCOCC4)cn3c2-c2c[nH]cn2)n1 [Example 65, 5-[3-(1H-imidazol-4-yl)-6-[(oxan-4-yloxy)methyl]imidazo[1,2-a]pyrimidin-2-yl]-3-(trifluoromethyl)-1H-1,2,4-triazole] | 0.501 µM
23 | CS(=O)(=O)N1Cc2cn3c(-c4cnc[nH]4)c(-c4nc(C(F)(F)F)n[nH]4)nc3nc2C1 [Example 67, 12-(1H-imidazol-5-yl)-5-methanesulfonyl-11-[3-(trifluoromethyl)-1H-1,2,4-triazol-5-yl]-1,5,8,10-tetraazatricyclo[7.3.0.0^3,^7]dodeca-2,7,9,11-tetraene] | 2.51 µM
24 | CC(=O)N(C)Cc1cnc2nc(-c3nc(C(F)(F)F)n[nH]3)c(-c3cnc[nH]3)n2c1 [Example 76, N-{[3-(1H-imidazol-5-yl)-2-[3-(trifluoromethyl)-1H-1,2,4-triazol-5-yl]imidazo[1,2-a]pyrimidin-6-yl]methyl}-N-methylacetamide] | 5.01 µM
25 | CCOCc1cnc2nc(-c3nc(C(F)F)n[nH]3)c(-c3cnc[nH]3)n2c1 [Example 85, 3-(difluoromethyl)-5-[6-(ethoxymethyl)-3-(1H-imidazol-5-yl)imidazo[1,2-a]pyrimidin-2-yl]-1H-1,2,4-triazole] | 0.0501 µM
26 | FC(F)(F)c1ccn2c(-c3cnc[nH]3)c(-c3nc(Br)n[nH]3)nc2n1 [Example 91, 3-bromo-5-[3-(1H-imidazol-5-yl)-7-(trifluoromethyl)imidazo[1,2-a]pyrimidin-2-yl]-1H-1,2,4-triazole] | 1 µM
